In US10040781B2, “Tank-binding kinase inhibitor compounds” (Gilead Sciences, Inc., priority 2014, dated 2018):

Key:
TBK1 = TBK1 (Homo sapiens (Human), UniProt Q9UHD2); assay: TBK1 TR-FRET enzymatic assay;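 note: phosphorylation of a biotinylated Ser/Thr peptide by purified full-length recombinant TBK1, read by TR-FRET after 240 min at 25 °C, IC50 is the geometric mean of at least four runs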
IKKε = IKKε (Homo sapiens (Human), UniProt Q14164); assay: IKKε TR-FRET enzymatic assay; format: biochemical; settings: TR-FRET, 2×Km ATP; geometric mean of minimum four determinations; read-out: IKKe IC50
Chain of IKKε (Q14164 whole entry): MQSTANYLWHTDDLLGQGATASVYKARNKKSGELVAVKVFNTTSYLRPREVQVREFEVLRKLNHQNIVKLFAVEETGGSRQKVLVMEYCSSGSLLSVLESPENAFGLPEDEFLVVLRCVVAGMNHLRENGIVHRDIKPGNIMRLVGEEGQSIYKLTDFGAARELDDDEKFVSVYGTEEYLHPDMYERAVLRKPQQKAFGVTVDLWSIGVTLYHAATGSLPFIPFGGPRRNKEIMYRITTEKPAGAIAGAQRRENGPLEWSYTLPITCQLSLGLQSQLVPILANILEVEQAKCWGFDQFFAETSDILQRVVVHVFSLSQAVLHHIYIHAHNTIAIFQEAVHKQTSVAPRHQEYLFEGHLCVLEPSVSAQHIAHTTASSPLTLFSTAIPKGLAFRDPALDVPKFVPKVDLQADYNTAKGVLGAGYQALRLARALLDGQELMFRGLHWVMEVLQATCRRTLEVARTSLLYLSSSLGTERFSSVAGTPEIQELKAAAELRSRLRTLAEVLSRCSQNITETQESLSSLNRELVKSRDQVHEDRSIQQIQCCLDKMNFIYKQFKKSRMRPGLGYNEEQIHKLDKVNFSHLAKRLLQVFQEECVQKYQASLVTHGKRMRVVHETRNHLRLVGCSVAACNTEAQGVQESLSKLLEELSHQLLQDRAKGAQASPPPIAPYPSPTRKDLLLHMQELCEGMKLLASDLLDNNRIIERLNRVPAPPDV

hJAK2 = hJAK2 (Homo sapiens (Human), UniProt O60674); assay: hJAK2 LANCE TR-FRET enzymatic assay; format: biochemical; settings: read-out: JAK2 IC50
Chain of hJAK2 (O60674 whole entry): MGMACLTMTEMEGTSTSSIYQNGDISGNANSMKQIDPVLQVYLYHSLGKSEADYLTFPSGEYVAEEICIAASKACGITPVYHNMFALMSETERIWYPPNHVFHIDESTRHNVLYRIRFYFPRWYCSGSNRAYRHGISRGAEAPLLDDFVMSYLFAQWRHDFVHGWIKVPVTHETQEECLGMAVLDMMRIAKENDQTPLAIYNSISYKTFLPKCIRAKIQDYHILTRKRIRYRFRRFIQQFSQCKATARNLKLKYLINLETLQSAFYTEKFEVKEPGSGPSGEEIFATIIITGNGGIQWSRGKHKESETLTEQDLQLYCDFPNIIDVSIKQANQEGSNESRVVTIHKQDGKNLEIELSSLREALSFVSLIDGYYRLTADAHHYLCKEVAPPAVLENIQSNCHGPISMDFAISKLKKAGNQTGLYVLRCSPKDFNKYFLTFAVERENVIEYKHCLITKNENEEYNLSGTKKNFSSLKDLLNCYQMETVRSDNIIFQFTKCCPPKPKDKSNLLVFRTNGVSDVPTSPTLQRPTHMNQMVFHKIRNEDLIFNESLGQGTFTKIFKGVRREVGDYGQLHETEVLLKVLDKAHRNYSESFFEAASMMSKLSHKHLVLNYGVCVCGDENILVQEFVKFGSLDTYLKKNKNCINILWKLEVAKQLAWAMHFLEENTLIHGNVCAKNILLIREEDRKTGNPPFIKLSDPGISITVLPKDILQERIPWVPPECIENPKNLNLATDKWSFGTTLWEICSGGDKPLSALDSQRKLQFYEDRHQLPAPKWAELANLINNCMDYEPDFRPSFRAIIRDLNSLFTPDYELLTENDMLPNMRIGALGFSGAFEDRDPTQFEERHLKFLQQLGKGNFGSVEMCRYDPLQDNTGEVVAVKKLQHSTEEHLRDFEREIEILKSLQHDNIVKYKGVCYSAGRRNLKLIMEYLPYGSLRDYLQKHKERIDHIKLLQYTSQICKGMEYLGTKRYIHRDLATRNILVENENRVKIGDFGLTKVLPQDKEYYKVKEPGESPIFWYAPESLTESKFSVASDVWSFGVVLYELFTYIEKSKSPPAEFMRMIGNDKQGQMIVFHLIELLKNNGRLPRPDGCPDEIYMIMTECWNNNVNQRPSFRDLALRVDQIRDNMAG

Chain of TBK1 (Q9UHD2 whole entry): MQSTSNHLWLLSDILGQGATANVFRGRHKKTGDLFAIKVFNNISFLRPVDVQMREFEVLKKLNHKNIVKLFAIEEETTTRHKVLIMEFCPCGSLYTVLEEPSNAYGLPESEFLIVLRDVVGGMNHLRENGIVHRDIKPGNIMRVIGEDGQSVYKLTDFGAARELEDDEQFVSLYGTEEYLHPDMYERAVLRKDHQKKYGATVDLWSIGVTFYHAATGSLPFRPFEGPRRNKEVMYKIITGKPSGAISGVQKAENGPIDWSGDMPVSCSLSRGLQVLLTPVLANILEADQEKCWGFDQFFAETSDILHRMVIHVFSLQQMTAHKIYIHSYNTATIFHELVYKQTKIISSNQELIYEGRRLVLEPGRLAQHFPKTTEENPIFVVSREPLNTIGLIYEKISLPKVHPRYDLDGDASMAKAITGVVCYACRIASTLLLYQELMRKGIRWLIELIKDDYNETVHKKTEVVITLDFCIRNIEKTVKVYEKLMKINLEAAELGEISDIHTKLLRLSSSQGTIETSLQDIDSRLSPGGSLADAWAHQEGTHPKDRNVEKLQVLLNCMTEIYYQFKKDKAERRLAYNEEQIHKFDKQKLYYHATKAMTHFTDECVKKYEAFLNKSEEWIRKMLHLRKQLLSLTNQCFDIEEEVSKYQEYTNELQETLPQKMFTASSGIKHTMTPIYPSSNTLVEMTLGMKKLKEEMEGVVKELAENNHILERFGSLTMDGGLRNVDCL

Structure (SMILES) | IC50 (TBK1) | IC50 (IKKε) | IC50 (hJAK2)
Cc1cc(Nc2ncnc(-c3ccc(O[C@H]4CCN(C(=O)CCO)C[C@H]4F)c(C#N)c3)n2)ccc1N1CCN(C2COC2)CC1 [Example 533, 2-(((3R,4S)-3-fluoro-1-(3-hydroxypropanoyl)piperidin-4-yl)oxy)-5-(4-((3-methyl-4-(4-(oxetan-3-yl)piperazin-1-yl)phenyl)amino)-1,3,5-triazin-2-yl)benzonitrile] | 4 nM | 7 nM | 88 nM
Cc1cc(Nc2ncnc(-c3ccc(N4C[C@H](O)C[C@@H]4C)c(C#N)c3)n2)ccc1N1CCN(C2COC2)CC1 [Example 534, 2-((2S,4R)-4-hydroxy-2-methylpyrrolidin-1-yl)-5-(4-((3-methyl-4-(4-(oxetan-3-yl)piperazin-1-yl)phenyl)amino)-1,3,5-triazin-2-yl)benzonitrile] | 4 nM | 7 nM | 32 nM
C[C@H]1CN(c2ccc(Nc3ncnc(-c4ccc(O[C@H]5CCN(C(=O)[C@@H]6CCC(=O)N6)C[C@H]5F)c(C#N)c4)n3)cc2)CCN1C1COC1 [Example 535, 2-(((3R,4S)-3-fluoro-1-((S)-5-oxopyrrolidine-2-carbonyl)piperidin-4-yl)oxy)-5-(4-((4-((S)-3-methyl-4-(oxetan-3-yl)piperazin-1-yl)phenyl)amino)-1,3,5-triazin-2-yl)benzonitrile] | 3 nM | 3 nM | 904 nM
Cc1cc(Nc2ncnc(-c3ccc(O[C@H]4CCN(C(=O)[C@@H]5CCC(=O)N5)C[C@H]4F)c(C#N)c3)n2)ccc1N1CCN(C2COC2)CC1 [Example 536, 2-(((3R,4S)-3-fluoro-1-((S)-5-oxopyrrolidine-2-carbonyl)piperidin-4-yl)oxy)-5-(4-((3-methyl-4-(4-(oxetan-3-yl)piperazin-1-yl)phenyl)amino)-1,3,5-triazin-2-yl)benzonitrile] | 2 nM | 1 nM | 101 nM
CC(=O)Nc1ccc(Nc2ncnc(-c3ccc(O[C@H]4CCN(C(=O)[C@@H]5CCC(=O)N5)C[C@H]4F)c(C#N)c3)n2)cn1 [Example 537, N-(5-((4-(3-cyano-4-(((3R,4S)-3-fluoro-1-((S)-5-oxopyrrolidine-2-carbonyl)piperidin-4-yl)oxy)phenyl)-1,3,5-triazin-2-yl)amino)pyridin-2-yl)acetamide] | 8 nM | 18 nM | ≥ 1000 nM
CCOc1ccc(Nc2ncnc(-c3ccc(O[C@H]4CCN(C(=O)[C@@H]5CCC(=O)N5)C[C@H]4F)c(C#N)c3)n2)cn1 [Example 538, 5-(4-((6-ethoxypyridin-3-yl)amino)-1,3,5-triazin-2-yl)-2-(((3R,4S)-3-fluoro-1-((S)-5-oxopyrrolidine-2-carbonyl)piperidin-4-yl)oxy)benzonitrile] | 7 nM | 14 nM | ≥ 1000 nM
C[C@H](O)C(=O)N1CC[C@H](Oc2ccc(-c3ncnc(Nc4cccc(CN5CCOCC5)c4)n3)cc2C#N)[C@H](F)C1 [Example 539, 2-(((3R,4S)-3-fluoro-1-((S)-2-hydroxypropanoyl)piperidin-4-yl)oxy)-5-(4-((3-(morpholinomethyl)phenyl)amino)-1,3,5-triazin-2-yl)benzonitrile] | 3 nM | 2 nM | 519 nM
CC(=O)Nc1ccc(Nc2ncnc(-c3ccc(O[C@H]4CCN(C(=O)[C@H](C)O)C[C@H]4F)c(C#N)c3)n2)cn1 [Example 540, N-(5-((4-(3-cyano-4-(((3R,4S)-3-fluoro-1-((S)-2-hydroxypropanoyl)piperidin-4-yl)oxy)phenyl)-1,3,5-triazin-2-yl)amino)pyridin-2-yl)acetamide] | 20 nM | 21 nM | ≥ 1000 nM
CCOc1ccc(Nc2ncnc(-c3ccc(O[C@H]4CCN(C(=O)[C@H](C)O)C[C@H]4F)c(C#N)c3)n2)cn1 [Example 541, 5-(4-((6-ethoxypyridin-3-yl)amino)-1,3,5-triazin-2-yl)-2-(((3R,4S)-3-fluoro-1-((S)-2-hydroxypropanoyl)piperidin-4-yl)oxy)benzonitrile] | 15 nM | 17 nM | ≥ 1000 nM
C[C@@H]1CN(c2ccc(Nc3ncnc(-c4ccc(O[C@H]5CCN(C(=O)[C@@H]6CCC(=O)N6)C[C@H]5F)c(C#N)c4)n3)cc2)CCN1C1COC1 [Example 542, 2-(((3R,4S)-3-fluoro-1-((S)-5-oxopyrrolidine-2-carbonyl)piperidin-4-yl)oxy)-5-(4-((4-((R)-3-methyl-4-(oxetan-3-yl)piperazin-1-yl)phenyl)amino)-1,3,5-triazin-2-yl)benzonitrile] | 6 nM | 4 nM | 363 nM
COc1cc(Nc2ncnc(-c3ccc(O[C@H]4CCN(C(=O)[C@@H]5CCC(=O)N5)C[C@H]4F)c(C#N)c3)n2)ccc1N1CCN(C2COC2)CC1 [Example 544, 2-(((3R,4S)-3-fluoro-1-((S)-5-oxopyrrolidine-2-carbonyl)piperidin-4-yl)oxy)-5-(4-((3-methoxy-4-(4-(oxetan-3-yl)piperazin-1-yl)phenyl)amino)-1,3,5-triazin-2-yl)benzonitrile] | 2 nM | 1 nM | 44 nM
C[C@H](O)C(=O)N1CC[C@H](Oc2ccc(-c3ncnc(Nc4ccc5c(c4)CNC5)n3)cc2C#N)[C@H](F)C1 [Example 545, 2-(((3R,4S)-3-fluoro-1-((S)-2-hydroxypropanoyl)piperidin-4-yl)oxy)-5-(4-(isoindolin-5-ylamino)-1,3,5-triazin-2-yl)benzonitrile] | 3 nM | 1 nM | 659 nM
COCC(=O)N1CC[C@H](Oc2ccc(-c3ncnc(Nc4ccc(N5CCN(C6COC6)CC5)cc4)n3)cc2C#N)[C@H](F)C1 [Example 546, 2-(((3R,4S)-3-fluoro-1-(2-methoxyacetyl)piperidin-4-yl)oxy)-5-(4-((4-(4-(oxetan-3-yl)piperazin-1-yl)phenyl)amino)-1,3,5-triazin-2-yl)benzonitrile] | 2 nM | 2 nM | 492 nM
CO[C@@H](C)C(=O)N1CC[C@H](Oc2ccc(-c3ncnc(Nc4ccc(N5CCN(C6COC6)CC5)cc4)n3)cc2C#N)[C@H](F)C1 [Example 547, 2-(((3R,4S)-3-fluoro-1-((S)-2-methoxypropanoyl)piperidin-4-yl)oxy)-5-(4-((4-(4-(oxetan-3-yl)piperazin-1-yl)phenyl)amino)-1,3,5-triazin-2-yl)benzonitrile] | 11 nM | 36 nM | ≥ 1000 nM
N#Cc1cc(-c2ncnc(Nc3ccc(N4CCN(C5COC5)CC4)cc3)n2)ccc1O[C@H]1CCN(C(=O)[C@@H]2CNC(=O)C2)C[C@H]1F [Example 548, 2-(((3R,4S)-3-fluoro-1-((S)-5-oxopyrrolidine-3-carbonyl)piperidin-4-yl)oxy)-5-(4-((4-(4-(oxetan-3-yl)piperazin-1-yl)phenyl)amino)-1,3,5-triazin-2-yl)benzonitrile] | 21 nM | 96 nM | 353 nM
CS(=O)(=O)CC(=O)N1CC[C@H](Oc2ccc(-c3ncnc(Nc4ccc(N5CCN(C6COC6)CC5)cc4)n3)cc2C#N)[C@H](F)C1 [Example 549, 2-(((3R,4S)-3-fluoro-1-(2-(methylsulfonyl)acetyl)piperidin-4-yl)oxy)-5-(4-((4-(4-(oxetan-3-yl)piperazin-1-yl)phenyl)amino)-1,3,5-triazin-2-yl)benzonitrile] | 4 nM | 11 nM | 179 nM
N#Cc1cc(-c2ncnc(Nc3ccc(N4CCN(C5COC5)CC4)cc3)n2)ccc1O[C@H]1CCN(C(=O)C2CC(O)C2)C[C@H]1F (stereo partly drawn) [Example 550, 2-(((3R,4S)-3-fluoro-1-(3-hydroxycyclobutanecarbonyl)piperidin-4-yl)oxy)-5-(4-((4-(4-(oxetan-3-yl)piperazin-1-yl)phenyl)amino)-1,3,5-triazin-2-yl)benzonitrile] | 11 nM | 36 nM | 750 nM
N#Cc1cc(-c2ncnc(Nc3ccc(N4CCN(C5COC5)CC4)cc3)n2)ccc1O[C@H]1CCN(C(=O)C2CCNC2=O)C[C@H]1F (stereo partly drawn) [Example 551, 2-(((3R,4S)-3-fluoro-1-(2-oxopyrrolidine-3-carbonyl)piperidin-4-yl)oxy)-5-(4-((4-(4-(oxetan-3-yl)piperazin-1-yl)phenyl)amino)-1,3,5-triazin-2-yl)benzonitrile] | 16 nM | 92 nM | 799 nM
N#Cc1cc(-c2ncnc(Nc3ccc(N4CCN(C5COC5)CC4)cc3)n2)ccc1O[C@H]1CCN(C(=O)[C@H]2CNC(=O)C2)C[C@H]1F [Example 552, 2-(((3R,4S)-3-fluoro-1-((R)-5-oxopyrrolidine-3-carbonyl)piperidin-4-yl)oxy)-5-(4-((4-(4-(oxetan-3-yl)piperazin-1-yl)phenyl)amino)-1,3,5-triazin-2-yl)benzonitrile] | 28 nM | 174 nM | 562 nM
CC(C)(O)CC(=O)N1CC[C@H](Oc2ccc(-c3ncnc(Nc4ccc(N5CCN(C6COC6)CC5)cc4)n3)cc2C#N)[C@H](F)C1 [Example 553, 2-(((3R,4S)-3-fluoro-1-(3-hydroxy-3-methylbutanoyl)piperidin-4-yl)oxy)-5-(4-((4-(4-(oxetan-3-yl)piperazin-1-yl)phenyl)amino)-1,3,5-triazin-2-yl)benzonitrile] | 38 nM | 51 nM | ≥ 1000 nM
C[C@H](O)C(=O)N1CC[C@H](Oc2ccc(-c3ncnc(Nc4ccc(-n5ccnc5)cc4)n3)cc2C#N)[C@H](F)C1 [Example 554, 5-(4-((4-(1H-imidazol-1-yl)phenyl)amino)-1,3,5-triazin-2-yl)-2-(((3R,4S)-3-fluoro-1-((S)-2-hydroxypropanoyl)piperidin-4-yl)oxy)benzonitrile] | 5 nM | 4 nM | ≥ 1000 nM
N#Cc1cc(-c2ncnc(Nc3ccc(N4CCOCC4)cc3)n2)ccc1O[C@H]1CCN(C(=O)[C@@H](O)CO)C[C@H]1F [Example 555, 2-(((3R,4S)-1-((S)-2,3-dihydroxypropanoyl)-3-fluoropiperidin-4-yl)oxy)-5-(4-((4-morpholinophenyl)amino)-1,3,5-triazin-2-yl)benzonitrile] | 4 nM | 1 nM | 732 nM
